The assay has as its target T1, AsPC-1 HiBiT-KRASG12D (Homo sapiens, UniProt P01116, G12D).
T1 construct: insert the HiBiT tag onto the N-terminus of one or more of the endogenous KRAS alleles; endogenous in cells; host or cells: AsPC-1 (ATCC CRL-1682), CRISPR-Cas9 knock-in clone, one tagged allele
As to the kind of experiment: HiBiT degradation assay (G12D), AsPC-1 HiBiT-KRASG12D cells. Type of assay: cell-based. Conditions: 24 hours treatment; for Dmax: ASPC1, AsPC-1 HiBiT-KRASG12D cells, maximum degradation observed; for DC50: AsPC-1 HiBiT-KRASG12D cells, HiBiT luminescence. In a few lines: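 Steps: treat HiBiT-KRASG12D AsPC-1 cells with compound for 24 hours; add alamar blue to 1× and incubate 4 hours to assess viability; wash with PBS; add HiBiT lytic detection reagent, incubate 45 minutes at room temperature; read luminescence. Viability fluorescence is normalized to DMSO wells.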
(In general: The HiBiT peptide binds its large partner to form an active luciferase.)

What is called Dmax is the largest share of the target that was removed. The DC50 is the concentration giving 50% degradation. Low readings indicate degradation at low concentration, high ones degradation only at high concentration.

SMILES strings stand for the structures.

T1 sequence (P01116 1-188 isoform P01116-2 G12D): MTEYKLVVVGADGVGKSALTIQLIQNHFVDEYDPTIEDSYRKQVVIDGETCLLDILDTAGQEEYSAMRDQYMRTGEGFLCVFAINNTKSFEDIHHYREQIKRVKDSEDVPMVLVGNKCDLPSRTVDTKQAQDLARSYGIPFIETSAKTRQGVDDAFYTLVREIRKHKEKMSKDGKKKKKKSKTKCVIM

In the case of `CCc1cccc2cc(O)cc(-c3ncc4c(N5CC6CCC(C5)N6)nc(OC[C@]56CCCN5[C@H](COC(=O)N5CC(Oc7cc([C@H](C(=O)N8C[C@H](O)C[C@H]8C(=O)N[C@@H](C)c8ccc(-c9scnc9C)cc8)C(C)C)on7)C5)CC6)nc4c3F)c12` [Compound 128, [(3S,7aR)-7a-{[(4-{3,8-diazabicyclo[3.2.1]octan-3-yl}-7-(8-ethyl-3-hydroxynaphthalen-1-yl)-8-fluoropyrido[4,3-d]pyrimidin-2-yl)oxy]methyl}-hexahydro-1H-pyrrolizin-3-yl]methyl 3-({5-[(2R)-1-[(2S,4R)-4-hydroxy-2-{[(1S)-1-[4-(4-methyl-1,3-thiazol-5-yl)phenyl]ethyl]carbamoyl}pyrrolidin-1-yl]-3-methyl-1-oxobutan-2-yl]-1,2-oxazol-3-yl}oxy)azetidine-1-carboxylate], the greatest degradation seen (Dmax) was 80 to 100% and the DC50 was < 600 nM. Turning to `C#Cc1c(F)ccc2cccc(-c3ncc4c(N5CC6CCC(C5)N6)nc(OC[C@]56CCCN5[C@H](COC(=O)N5CCN(c7cc([C@H](C(=O)N8C[C@H](O)C[C@H]8C(=O)N[C@@H](C)c8ccc(-c9scnc9C)cc8)C(C)C)on7)CC5)CC6)nc4c3F)c12` [Compound 53, [(3S,7aR)-7a-{[(4-{3,8-diazabicyclo[3.2.1]octan-3-yl}-7-(8-ethynyl-7-fluoronaphthalen-1-yl)-8-fluoropyrido[4,3-d]pyrimidin-2-yl)oxy]methyl}-hexahydro-1H-pyrrolizin-3-yl]methyl 4-{5-[(2R)-1-[(2S,4R)-4-hydroxy-2-{[(1S)-1-[4-(4-methyl-1,3-thiazol-5-yl)phenyl]ethyl]carbamoyl}pyrrolidin-1-yl]-3-methyl-1-oxobutan-2-yl]-1,2-oxazol-3-yl}piperazine-1-carboxylate], the Dmax lay in the range of 80 to 100% and the DC50 is < 600 nM. The like results for `CCc1cccc2cc(O)cc(-c3ncc4c(N5CC6CCC(C5)N6)nc(OCCN5CCC(F)(CN6CCN(c7cc([C@H](C(=O)N8C[C@H](O)C[C@H]8C(=O)N[C@@H](C)c8ccc(-c9scnc9C)cc8)C(C)C)on7)C[C@@H]6C)CC5)nc4c3F)c12` [Compound 214, (2S,4R)-1-[(2R)-2-{3-[(3S)-4-[(1-{2-[(4-{3,8-diazabicyclo[3.2.1]octan-3-yl}-7-(8-ethyl-3-hydroxynaphthalen-1-yl)-8-fluoropyrido[4,3-d]pyrimidin-2-yl)oxy]ethyl}-4-fluoropiperidin-4-yl)methyl]-3-methylpiperazin-1-yl]-1,2-oxazol-5-yl}-3-methylbutanoyl]-4-hydroxy-N-[(1S)-1-[4-(4-methyl-1,3-thiazol-5-yl)phenyl]ethyl]pyrrolidine-2-carboxamide] were, in that order, 80 to 100% and < 600 nM. Regarding `CCc1cccc2cc(O)cc(-c3ncc4c(N5CC6CCC(C5)N6C=O)nc(OCCN5CCC6(CC5)CN(c5cc([C@H](C(=O)N7C[C@H](O)C[C@H]7C(=O)N[C@@H](C)c7ccc(-c8scnc8C)cc7)C(C)C)on5)C6)nc4c3F)c12` [Compound 290, (2S,4R)-1-[(2R)-2-[3-[7-[2-[7-(8-ethyl-3-hydroxy-1-naphthyl)-8-fluoro-4-(8-formyl-3,8-diazabicyclo[3.2.1]octan-3-yl)pyrido[4,3-d]pyrimidin-2-yl]oxyethyl]-2,7-diazaspiro[3.5]nonan-2-yl]isoxazol-5-yl]-3-methyl-butanoyl]-4-hydroxy-N-[(1S)-1-[4-(4-methylthiazol-5-yl)phenyl]ethyl]pyrrolidine-2-carboxamide], the DC50 was > 3000 nM. As to `CCc1cccc2cc(O)cc(-c3ncc4c(N5CC6CCC(C5)N6)nc(OC[C@@H]5CN(CC6CN(c7cc([C@H](C(=O)N8C[C@H](O)C[C@H]8C(=O)N[C@@H](C)c8ccc(-c9scnc9C)cc8)C(C)C)on7)C6)CCN5C)nc4c3F)c12` [Compound 163, (2S,4R)-1-[(2R)-2-[3-(3-{[(3S)-3-{[(4-{3,8-diazabicyclo[3.2.1]octan-3-yl}-7-(8-ethyl-3-hydroxynaphthalen-1-yl)-8-fluoropyrido[4,3-d]pyrimidin-2-yl)oxy]methyl}-4-methylpiperazin-1-yl]methyl}azetidin-1-yl)-1,2-oxazol-5-yl]-3-methylbutanoyl]-4-hydroxy-N-[(1S)-1-[4-(4-methyl-1,3-thiazol-5-yl)phenyl]ethyl]pyrrolidine-2-carboxamide], the Dmax fell in the range of 60 to 80% and the DC50 was < 600 nM. With `CCc1cccc2cc(O)cc(-c3ncc4c(N5CC6CCC(C5)N6)nc(OCCN5CCC(CC6(F)CN(CC(=O)N[C@H](C(=O)N7C[C@H](O)C[C@H]7C(=O)N[C@@H](C)c7ccc(-c8scnc8C)cc7)C(C)(C)C)C6)CC5)nc4c3F)c12` [Compound 263, (2S,4R)-1-[(2S)-2-(2-{3-[(1-{2-[(4-{3,8-diazabicyclo[3.2.1]octan-3-yl}-7-(8-ethyl-3-hydroxynaphthalen-1-yl)-8-fluoropyrido[4,3-d]pyrimidin-2-yl)oxy]ethyl}piperidin-4-yl)methyl]-3-fluoroazetidin-1-yl}acetamido)-3,3-dimethylbutanoyl]-4-hydroxy-N-[(1S)-1-[4-(4-methyl-1,3-thiazol-5-yl)phenyl]ethyl]pyrrolidine-2-carboxamide], the Dmax lay within 80 to 100% and the DC50 was < 600 nM.

For the compound `C#Cc1c(F)ccc2cc(O)cc(-c3ncc4c(N5CC6CCC(C5)N6)nc(OC[C@@H]5CC[C@@H](COC(=O)N6CCN(c7cc([C@H](C(=O)N8C[C@H](O)C[C@H]8C(=O)N[C@@H](C)c8ccc(-c9scnc9C)cc8)C(C)C)on7)CC6)N5C)nc4c3F)c12` [Compound 59, [(2S,5S)-5-{[(4-{3,8-diazabicyclo[3.2.1]octan-3-yl}-7-(8-ethynyl-7-fluoro-3-hydroxynaphthalen-1-yl)-8-fluoropyrido[4,3-d]pyrimidin-2-yl)oxy]methyl}-1-methylpyrrolidin-2-yl]methyl 4-{5-[(2R)-1-[(2S,4R)-4-hydroxy-2-{[(1S)-1-[4-(4-methyl-1,3-thiazol-5-yl)phenyl]ethyl]carbamoyl}pyrrolidin-1-yl]-3-methyl-1-oxobutan-2-yl]-1,2-oxazol-3-yl}piperazine-1-carboxylate], the Dmax was in the range of 80 to 100% and the DC50 was < 600 nM. `CCc1cccc2cccc(-c3ncc4c(N5CCCCCC5)nc(OC[C@@]56CCCN5[C@@H](COC(=O)N5CCN(c7cc([C@H](C(=O)N8C[C@H](O)C[C@H]8C(=O)N[C@@H](C)c8ccc(-c9scnc9C)cc8)C(C)C)on7)CC5)CC6)nc4c3F)c12` (relative stereo) [Compound 49]: the DC50 was > 3000 nM. Regarding `CCc1cccc2cc(O)cc(-c3ncc4c(N5CC6CCC(C5)N6)nc(OCCN5CCC(F)(CN6CCN(c7cc([C@H](C(=O)N8C[C@H](O)C[C@H]8C(=O)N[C@@H](C)c8ccc(-c9scnc9C)cc8)C(C)C)on7)C[C@H]6C)CC5)nc4c3F)c12` [Compound 200, (2S,4R)-1-[(2R)-2-{3-[(3R)-4-[(1-{2-[(4-{3,8-diazabicyclo[3.2.1]octan-3-yl}-7-(8-ethyl-3-hydroxynaphthalen-1-yl)-8-fluoropyrido[4,3-d]pyrimidin-2-yl)oxy]ethyl}-4-fluoropiperidin-4-yl)methyl]-3-methylpiperazin-1-yl]-1,2-oxazol-5-yl}-3-methylbutanoyl]-4-hydroxy-N-[(1S)-1-[4-(4-methyl-1,3-thiazol-5-yl)phenyl]ethyl]pyrrolidine-2-carboxamide], the Dmax lay within 60 to 80% and the DC50 is < 600 nM.

Values taken from patent US20250206732A1, “COMPOUNDS AND METHODS FOR THE TARGETED DEGRADATION OF KRAS” (Arvinas Operations, Inc., priority 2022, published 2025).
